Results as given in patent US9328142B2, “Lipopeptide inhibitors of RAS oncoproteins” (The United States of America, as represented by The …, priority 2011, dated 2016).

Key:
[1] = system: A549 human lung cancer cell line harboring constitutively active Ras mutant; assay: MTT growth inhibition assay, A549; format: cell-based; settings: A549, MTT
Experimental: MCF-7 (breast cancer), T47D (breast cancer), Colo 205 (colon cancer), JM-1 (rat hepatoma), Sk Mel-2 (melanoma), PLC (human hepatoma), and HepG2 (human hepatoma) were obtained from American Type Cell Culture Collection. MCF-7 cells were grown in RPMI medium supplemented with 10% Fetal Bovine Serum. The remaining cell lines were grown in DMEM medium supplemented with 10% Fetal Bovine Serum. For the assay, cells were seeded into 96 well plates in medium containing 1% Fetal Bovine Serum and 100 μL of a cell suspension containing 5000 cells per well were used for each well. Cell growth was evaluated utilizing MTT ((3-(4,5-Dimethylthiazol-2-yl)-2,5-diphenyltetrazolium). The absorbance of the wells at 544 nm was determined by a FLUOstar/POLARstar Galaxy (BMG Lab Technologies GmbH) microplate reader.
The growth inhibitory activity of compounds was compared using the A549 human lung cancer cell line harboring constitutively active G12D Ras mutant with the help of an MTT assay. […] Stepwise extensions and truncations confirmed that the peptide had the optimal length (see Table 1).
The growth inhibitory activity of compounds was compared using the A549 human lung cancer cell line harboring constitutively active G12D Ras mutant with the help of an MTT assay.

[2] = system: DPPC bilayers containing 5% DPPE stabilized by MSP1 scaffold protein (nanodiscs); assay: SPR membrane binding to phospholipid bilayer nanodiscs
Experimental: Dipalmitoylphosphatidylcholine (DPPC) bilayers containing 5% dipalmitoyldiphosphatidylethanolamine (DPPE) stabilized by MSP1 scaffold protein were prepared. […] The preparation procedure involved mixing DPPC lipids with MSP1 at a 90:1 molar ratio in the presence of 100 mM cholate. Cholate was removed by slow dialysis. The assembled nanodiscs were purified by size-exclusion chromatography on a calibrated Superdex 200 column and immobilized on a surface plasmon resonance (SPR) sensor chip.
The presence of a primary amine group in DPPE provided a convenient site for cross-linking of nanodiscs to an SPR sensor chip. The noncross-linked dextran in the sample and reference cells was blocked by the coupling reagent. Four different peptides were used to study membrane binding by SPR. […] The HVR peptide lacks post-translational modifications present in K-Ras4B. The second peptide is the HVR peptide conjugated to S-farnesyl L-cysteine methyl ester via a bifunctional cross-linker Sulfosuccinimidyl-4-(N-maleimidomethyl)cyclohexane-1-carboxylate (Sulfo-SMCC) (Pierce). The other two peptides were kR-4A-C1 and kR-4B-C1.
In this situation determination of true dissociation constants was not feasible. Instead, the data were analyzed using the Hill equation. The Hill coefficient describes the degree of binding cooperativity.

[3] = system: HCC15 cells; assay: Cell migration, Boyden Chambers; format: cell-based; settings: IC25 concentration
Experimental: (§1) The rate of migration and invasion was determined using Boyden Chambers (Millipore) in accordance with the manufacturer's protocol.

[4] = system: HCC15 cells; assay: Wound closure assay; format: cell-based
[5] = system: HCC15 cells; assay: Cell invasion, Boyden Chambers; format: cell-based; settings: IC25 concentration
Experimental: Cell invasion assays were performed using the BD Biocoat Matrigel Invasion Chambers in accordance with the manufacturer's protocol. Cells (1×10^5/mL) were seeded onto 12-well cell culture chamber using inserts with 8 μm pore size polycarbonate membrane over a thin layer of Matrigel Basement Membrane Matrix without phenol red (BD Biosciences) diluted at 1:100 in PBS. Following incubation of the plates for 48 hours at 37° C., cells that invaded through the Matrigel and migrated to the lower surface of the membrane were stained with Giemsa solution, counted under the microscope in at least 10 different fields, and photographed. Three wells were examined for each condition and cell type, and the experiments were repeated in triplicate.
as §1

[6] = system: H358 human lung cancer cells with mutated K-Ras; assay: H358 tumor growth in nude mice; format: in vivo
From the text: 2×10^6 H358 human lung cancer cells with mutated K-Ras were implanted subcutaneously (s.c.) in nude mice.

[7] = system: activated (GTP-bound) Ras in H358 human lung cancer cells; assay: Raf-RBD pull-down of active (GTP-bound) Ras; format: cell-based; settings: 5 μM, varying exposure times
Experimental: H358 human lung cancer cells were grown in 6-well plates in DMEM medium containing 10% FBS. When the cells were about 70% confluent, the medium was replaced with DMEM containing 1% FBS. Two hours later, Ras inhibitors (kR-H6-48, HR-1, kR-4A-4, or kR-4B-2) were added to provide a final concentration of 5 μM.
After varying exposure times, the cells were rinsed with PBS and lysed. The lysates were cleared by centrifugation, incubated with immobilized Raf-RBD beads (which bind Ras) and analyzed by Western blot using manufacturer's protocols (Cytoskeleton, Inc., Denver, Colo.; Catalog No. BK008). The bands corresponding to active (GTP-bound) Ras were quantified with the help of MIPAV software.

[8] = system: human lung tumor cell lines (A549, H460, and H1944) and a mouse astrocytoma cell line (187436 tu2) expressing mutated K-Ras; assay: Growth inhibition in cell lines expressing mutated K-Ras (FIGS. 2 and 3); format: cell-based; settings: A549, H460, H1944, 187436 tu2
From the text: The cell line was generated from astrocytoma developed in a transgenic mouse harboring a G12D mutation in K-Ras and inactivation of the Rb gene.

[9] = system: Ras protein in H2009 and H2592 cells; assay: Western blot of Ras protein amount in cancer cells; format: cell-based; settings: 0-3.0 μM, 18 hours
Experimental: A further experiment was undertaken to determine the effect of analogs of helix 6 and HVR on the amount of K-Ras protein in cancer cells. H2009 (lung adenocarcinoma cells) and H2592 (plural mesothelioma cells) were exposed to varying concentrations (0-3.0 μM) of kR-4A-3, kR-4B-3, or kR-H6-3 for 18 hours. The cells then were lysed and the lysate was analyzed by Western blot using anti-Ras mAb (Cell Biolabs, Inc.).

[10] = target: K-Ras in H2592 cells (Homo sapiens, UniProt P01116); settings: GI50 concentrations, 18 hours
From the text: Goat anti-mouse antibodies with Alexa Fluor TM 594 (red) were used to visualize the anti-Ras mouse mAb.

| Substance | GI50 ([1]; Table 1 helix 6 derivatives) [nM] | further results |
| --- | --- | --- |
| Ac-AFYTLVREIRQYR [kR-H6-17] | > 5000 |  |
| Ac-AFYTLVREIRQYRK (e-Pal) [kR-H6-8] | 5000 |  |
| Ac-DAFYTLVREIRQYRK (e-Pal) [kR-H6-9] | 500 |  |
| Ac-DGTQGLNLNGLPK-e-Pal [NR-1] |  | GI50 ([1]; Table 2 HVR derivatives): > 10000 nM |
| Ac-Doa-VEDAFYTLVREIRQYR [kR-H6-5] | 3300 |  |
| Ac-GLNVKIKKK-e-Pal [kR-4A-8] |  | GI50 ([1]; Table 2 HVR derivatives): > 10000 nM |
| Ac-KEKLNSKDGKKKKKKSKTKK-e-Pal [kR-4B-1] |  | GI50 ([1]; Table 2 HVR derivatives): 1450 nM; cooperative interactions with membrane lipids ([2]; phospholipid bilayers): showed the best cooperative interactions with membrane lipids; cell migration (average number of cells migrated) [3]: inhibition of NCC15 cell migration; cell motility (average closure) [4]: inhibition of HCC15 cell motility; cell invasion (average number of cells migrated) [5]: inhibition of HCC15 cell invasion |
| Ac-KKKKSKTKK-e-Pal [kR-4B-7] |  | GI50 ([1]; Table 2 HVR derivatives): 2000 nM |
| Ac-KKKSKTKK-e-Pal [kR-4B-8] |  | GI50 ([1]; Table 2 HVR derivatives): 2300 nM; tumor weight at the time of sacrifice ([6]; 10 mg/kg s.c. every second day for 20 days, control 1.21 g): 0.35 g; tumor growth ([6]; 10 mg/kg s.c. near the tumor every second day for 20 days): abolished the growth |
| Ac-KLNSKDGKKKKKKSKTKK-e-Pal [kR-4B-2] |  | GTP-bound Ras (fraction of control) [7]: reduction in activated (GTP-bound) Ras |
| Ac-KTPGAVKIKKK-e-Pal [kR-4A-5] |  | GI50 ([1]; Table 2 HVR derivatives): 5000 nM |
| Ac-KTPGLNVKIKKK-e-Pal [kR-4A-4] |  | GI50 ([1]; Table 2 HVR derivatives): 700 nM; GTP-bound Ras (fraction of control) [7]: reduction in activated (GTP-bound) Ras; growth inhibition (cell number, percent of control) [8]: growth inhibition |
| Ac-LRYQRIQRVLTYFAK-e-Pal (all D) [kR-H6-31] | 25 ± 10 |  |
| Ac-PGLNVKIKKK-e-Pal [kR-4A-7] |  | GI50 ([1]; Table 2 HVR derivatives): > 10000 nM |
| Ac-RLKKISKEEKTPGSVKIKKK-e-Pal [kR-4A-1] |  | GI50 ([1]; Table 2 HVR derivatives): 3100 nM; cell migration (average number of cells migrated) [3]: inhibition of NCC15 cell migration; cell motility (average closure) [4]: inhibition of HCC15 cell motility; cell invasion (average number of cells migrated) [5]: inhibition of HCC15 cell invasion |
| Ac-RYQRIQRVLTYFK-e-Pal (all D) [kR-H6-32] | 10 ± 4 |  |
| Ac-TPGLNVKIKKK-e-Pal [kR-4A-6] |  | GI50 ([1]; Table 2 HVR derivatives): > 10000 nM |
| Ac-VEDAFYTLVREIRQYR [kR-H6-16] | > 5000 |  |
| Ac-VEDAFYTLVREIRQYRK (e-Pal) [kR-H6-7] | 2700 |  |
| Ac-YQRIQRVLTYFAK-e-Pal (all D) [kR-H6-33] | 4.5 ± 1 |  |
| Ac-YQRIQRVLTYFK-e-Pal (all D) [kR-H6-11] | 10 |  |
| Ac-YQRKQRVLTYFK-e-Pal (all D) [kR-H6-13] | 60 |  |
| Ac-YRLKKISKEEKTPGK-e-Pal [kR-4A-2] |  | GI50 ([1]; Table 2 HVR derivatives): 1650 nM |
| Cap-YQRVQRVLTYF (all D) [kR-H6-49] | 0.8 |  |
| Cap-YQRVQRVLTYW (all D) [kR-H6-41] | 180 ± 40 |  |
| HVR peptide: represents the hypervariable region of K-Ras-4B, residues 165 through 183; lacks post-translational modifications (QYRLKKISKEEKTPGCVKI; K-Ras4B; UniProt P01116 165-183, looked up, fragment) [reference compound] |  | Hill coefficient (membrane binding cooperativity) ([2]; Hill equation): 1.106±0.001 |

| Substance | GI50 ([1]; Table 1 helix 6 derivatives) [nM] | further results |
| --- | --- | --- |
| Lau-HQRVQRVLTYF (all D) [kR-H6-43] | 300 ± 50 |  |
| Lau-WQRVQRVLTYF (all D) [kR-H6-44] | 1 ± 1 |  |
| Lau-YKRVQRVLTYF (all D) [kR-H6-42] | 300 ± 50 |  |
| Lau-YQRVQRVLTYF (all D) [kR-H6-38] | 15 |  |
| Lau-YQRVQRVLTYFA (all D) [kR-H6-47] | 1 ± 1 |  |
| Lau-YQRVQRVLTYW (all D) [kR-H6-39] | 90 ± 15 |  |
| Myr-YQRVQRVLTYW (all D) [kR-H6-40] | 20 ± 10 |  |
| Oct-YQRVQRVLTYF (all D) [kR-H6-50] | 4 ± 1 |  |
| Pal-Aib-YQRIQRVLTYF (all D) [kR-H6-35] | 450 ± 50 |  |
| Pal-KTKSKKKKK-NH2 All-D [kR-4B-6] |  | GI50 ([1]; Table 2 HVR derivatives): 1700 nM |
| Pal-KVEDAFYTLVREIRQYR [kR-H6-4] | > 5000 |  |
| Pal-LRYQRIERVLTYFADEV (all D) [kR-H6-2] | 300 |  |
| Pal-RYQRIERVLTYFADEV (all D) [kR-H6-1] | 1350 |  |
| Pal-RYQRIQRVLTYF (all D) [kR-H6-20] | 250 |  |
| Pal-RYQRIQRVLTYFA (all D) [kR-H6-19] | > 1000 |  |
| Pal-YQRIQRVLTYF (all D) [kR-H6-34] | 18 ± 5 |  |
| Pal-YQRIQRVLTYFA (all D) [kR-H6-21] | 30 |  |
| Pal-YQRKQRVLTYF (all D) [kR-H6-14] | 40 |  |
| Pal-YQRVQRVLTYF (all D) [kR-H6-36] | 10 ± 5 |  |
| Pal-e-KAFYTLVREIRKHK [kR-H6-18] | > 1000 |  |
| Pal-e-KAFYTLVREIRQY [kR-H6-10] | 300 |  |
| Pal-e-KAFYTLVREIRQYRL [kR-H6-27] | 280 ± 30 |  |
| Pal-e-KAFYTLVRQIRQYRL [kR-H6-28] | 250 ± 50 |  |
| Pal-e-KFYTLVREIRQYR [kR-H6-12] | 180 |  |
| e-Pal-KRYQRIERVLTYFADEV (all D) [kR-H6-3] | > 5000 | amount of Ras protein [9]: reduced the amount of Ras protein in lung cancer cells in a concentration-dependent manner; Ras protein levels by immunostaining [10]: reduction in protein levels; pattern of K-Ras distribution [10]: lack of characteristic punctuate pattern of K-Ras distribution |
